Experimental data reported in US20260063623A1, “METHODS OF ASSESSING METABOLIC FLUX” (The Regents of the University of Michigan, priority 2022, published 2026).
Like-named read-outs stand apart in the source and are kept apart here.

Assays:
[1] = test system: inosine monophosphate dehydrogenase (IMPDH); settings: mice models, combined with radiation; cited from earlier work
[2] = test system: de novo GMP synthesis (IMPDH); test: Machine learning prediction of de novo GMP synthesis ratio in MMF treated vs control GBM PDXs infused with U13C glucose; type: in vivo; settings: MMF treated GBM PDX mice vs control PDXs, from measured enrichment patterns
Source text: To generate data used for flux modeling, patient-derived xenografts (PDXs) from human glioblastomas are implanted into the brains of immunodeficient mice. PDXs are transduced with luciferase and EGFP prior for imaging and physical separation from brain tissue, respectively. Once brain tumors are established, mice are cannulated for infusions, treatments, and blood sampling. One catheter is surgically placed into the jugular vein of anesthetized recipient mice, and a second line is placed into the carotid artery. In experiments in which mice are to receive oral administration of MMF or vehicle, a third catheter is directed to the stomach. […] Brain tumors are separated from healthy brain tissue by fluorescence-guided microdissection. […] Small molecules from solid tissues and plasma are extracted and samples are analyzed by liquid chromatography-mass spectrometry (LC-MS) to identify the metabolites and their labeling patterns (FIG. 1A).
To train machine learning models that can predict the ratio of de novo synthesis of GMP to the overall GMP synthesis, simulated MIDs were used as input features. […] A machine learning model with a good evaluation score on a test dataset should be also evaluated on some experimental value for further validation. […] By measuring the MIDs in these two groups, the de novo GMP ratio can be calculated using the INST-MFA method and compared to machine learning results. […]

[3] = human, in vivo
Description: Eight patients with suspected GBM were recruited to the IRB-approved clinical study, which was performed perioperatively with standard-of-care craniotomies. Near the start of each procedure (approximately 2-4 hours prior to tissue resection), patients received a bolus intravenous dose of [U^13C]-glucose (8 g) followed by a continuous intravenous infusion of [U^13C]-glucose at a rate of 4 g/h. Arterial blood was collected into EDTA-coated vials every 30-60 min for plasma preparation and analysis until solid tissues of interest were harvested from each patient. […]
(§1) Flash-frozen tissue samples were homogenized in cold (−80° C.) 80% methanol. […] Isotope labeling was determined using an Agilent system consisting of an Infinity Lab II UPLC coupled with a 6545 QTOF mass spectrometer (Agilent Technologies, Santa Clara, CA), and data were analyzed with values corrected for natural isotope abundance using MassHunter Profinder 10.0. […] To determine relative metabolite abundances in tissues and plasma from control or Ser/Gly (−) diet fed mice, samples were prepared as described above and then analyzed with an Agilent 1290 Infinity II LC-6470 Triple Quadrupole tandem mass spectrometer system (Agilent Technologies, Santa Clara, CA). For compound optimization, calibration, and data acquisition, Agilent MassHunter Quantitative Analysis Software version B.08.02 was used.

[4] = design: species or system mice; settings: mouse, in vivo
Source text: At approximately 1-2 weeks before expected death related to brain tumors (˜3 weeks post-implant), intracranial GBM-bearing mice underwent dual catheterizations, with one catheter surgically placed into the jugular vein (for [U^13C]-glucose administration) and a second catheter placed into the carotid artery (for plasma collection during infusion). Mice were then allowed to recover from surgery for 4-5 days. In studies assessing the influence of RT on metabolism, cannulated mice were anesthetized by 2% isoflurane inhalation and then treated with cranially directed RT at a dose of 8 Gy or sham RT with a lead shield keeping the cranium […]. […]
as §1, with “For compound optimization, calibration, and data acquisition, Agilent MassHunter Quantitative Analysis Software version B.08.02 was used.” left out

Compound: COc1c(C)c2c(c(O)c1C/C=C(\C)CCC(=O)OCCN1CCOCC1)C(=O)OC2 [MMF, mycophenolate mofetil]
- radiation outcomes [1]: improves radiation outcomes
- de novo GMP synthesis ratio (de novo to overall GMP synthesis) predicted by machine learning model [2]: lower de novo GMP synthesis ratio

Compound: [U^13C]-glucose
- time to arterial steady state of labeled glucose [3]: approximately 30 minutes
- time to arterial steady state of labeled glucose [4]: ≤ 30 min
